Assay results reported in patent US10287267B2, “Isoquinolin-3-yl carboxamides and preparation and use thereof” (Samumed, LLC, priority 2016, dated 2019).
Read-outs that look alike come from different tables or passages of the source.

Experiments:
[1] = test system: α-smooth muscle actin (αSMA) positive LL29 cells; test: Inhibition of fibrotic process: αSMA in TGF-β1 treated primary human fibroblasts from IPF patients; assay type: cell-based; conditions: Homo sapiens, Fibroblast; for EC50: 96 h, Table 8, LL29 fibroblasts from IPF patients, TGF-β1 20 ng/mL, 4 days, dose-response 10 μM to 0.94 nM; for inhibition at 10 µM: read-out: percent value in parentheses beside EC50 >10 μM;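 on all read-outs here: controls were TGF-β1 stimulated wells with DMSO vehicle (positive) and cells given DMSO alone (negative), cultured in F12 medium with 1% fetal bovine serum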
[2] = test system: Tau phosphorylation at Ser396 (pSer396); test: Tau phosphorylation assay (pSer396 ELISA / western blot) in SH-SY5Y cells; assay type: cell-based, human; conditions: Homo sapiens, read-out: pSer396 Tau EC50;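 further: EC50 for reduction of Tau pSer396 in lysed cells, measured by colorimetric ELISA or chemiluminescent western blot, both using the same pSer396 antibody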
IL-6 = IL-6 inhibition in LPS-stimulated human peripheral blood mononuclear cells (HTRF); assay type: cell-based; conditions: Homo sapiens, PBMC; for inhibition at 10 µM: read-out: percent value in parentheses beside EC50 >10 μM; for EC50: Table 9, huPBMCs, LPS 50 ng/mL, 22 hours, dose-response starting from 10 μM;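 on all read-outs here: IL-6 detected by HTRF with an XL665- and Cryptate-labelled anti-IL-6 antibody pair, samples run in duplicate, EC50 obtained from a four-parameter Levenberg-Marquardt curve fit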
Protocol: After 22 hour incubation, a mixture of anti-IL6 XL665 and anti-IL-6 Cryptate diluted in reconstitution buffer (Catalog #62IL6PEC, Cisbio Inc., Bedford, Mass.) was added to each well. […] All samples were processed in duplicate. […] EC50 was determined using software generated by Dotmatics Limited (Windhill Bishops Stortford Herts, UK) using the Levenberg-Marquardt 4 parameter fitting procedure with finite different gradients.

[3] = test system: SW480 colon carcinoma cells; test: Cell viability assay (CellTiter-Glo); assay type: cell-based, human; conditions: Homo sapiens; for EC50: 96 h, SW480 cells, CellTiter-Glo, four days incubation; for inhibition at 10 µM: SW480, read-out: percent inhibition at 10 μM
recombinant GSK3β kinase = recombinant GSK3β kinase (Homo sapiens (Human), UniProt P49841); test: GSK3β kinase assay (Ser/Thr 09 peptide Z-lyte FRET); assay type: biochemical; conditions: 46 μM ATP, 1 h room temperature;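 further: kinase activity read as coumarin to fluorescein emission ratio, 11-point threefold dilutions from 10 µM to 0.0003 µM in duplicate, unphosphorylated and phosphorylated peptide as 0% and 100% controls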
[4] = target: recombinant DYRK1A kinase (Homo sapiens (Human), UniProt Q13627); test: DYRK1A kinase assay (Ser/Thr 18 peptide Z-lyte FRET); assay type: biochemical; conditions: 30 μM ATP, 1 h room temperature;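 further: Read-out is the coumarin to fluorescein emission ratio, referenced to unphosphorylated (0%) and phosphorylated (100%) Ser/Thr 18 peptide controls, values from dose-response curves by non-linear regression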
[5] = test system: Wnt pathway (Sp5-Luc reporter, TCF/LEF binding sites) in SW480 colon carcinoma cells; test: Screening assay for Wnt activity: Sp5-Luc reporter gene assay; assay type: cell-based, human; conditions: Homo sapiens; Sp5-Luc reporter, SW480 cells, 36 to 48 hours;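 further: firefly luciferase luminescence read in stably transduced SW480 cells carrying the Sp5 promoter reporter with eight TCF/LEF sites, compounds given in 0.1% DMSO final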
Protocol: The screening assay for Wnt activity is described as follows.
Following incubation, 15 μl of BriteLite Plus luminescence reagent (Perkin Elmer) was added to each well of the 384-well assay plates. The plates were placed on an orbital shaker for 2 min and then luminescence was quantified using the Envision (Perkin Elmer) plate reader.

[6] = SH-SY5Y cells, overnight (16-18 h) exposure

Sequence of recombinant GSK3β kinase (P49841 whole entry): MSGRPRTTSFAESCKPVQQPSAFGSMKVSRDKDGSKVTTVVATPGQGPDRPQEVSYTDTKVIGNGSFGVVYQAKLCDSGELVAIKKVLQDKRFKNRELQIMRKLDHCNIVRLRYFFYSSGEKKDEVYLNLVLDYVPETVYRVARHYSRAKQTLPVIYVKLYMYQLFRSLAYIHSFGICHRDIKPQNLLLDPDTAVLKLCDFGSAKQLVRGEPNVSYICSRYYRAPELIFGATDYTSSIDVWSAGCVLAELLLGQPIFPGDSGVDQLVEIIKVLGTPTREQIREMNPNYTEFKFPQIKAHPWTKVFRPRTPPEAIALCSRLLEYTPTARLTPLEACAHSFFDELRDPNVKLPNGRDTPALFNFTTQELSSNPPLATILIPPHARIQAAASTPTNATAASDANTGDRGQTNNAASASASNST

| Structure (SMILES) | EC50 [1] [nM] | EC50 [2, 6] [nM] | inhibition at 10 µM (IL-6) [%] | EC50 (IL-6) [nM] | EC50 [3] [nM] | EC50 (recombinant GSK3β kinase) [nM] | EC50 [4] [nM] | EC50 [5] [nM] | EC50 ([2]; SH-SY5Y) [nM] | inhibition at 10 µM [1] [%] | inhibition at 10 µM [3] [%] |
| --- | --- | --- | --- | --- | --- | --- | --- | --- | --- | --- | --- |
| O=C(CN1CCCC1)Nc1cc2cc(-c3cnn4c3CN(CCF)CC4)ccc2cn1 [Compound 999, N-(6-(5-(2-Fluoroethyl)-4,5,6,7-tetrahydropyrazolo[1,5-a]pyrazin-3-yl)isoquinolin-3-yl)-2-(pyrrolidin-1-yl)acetamide] | 779 | 659 | 30.3 | > 10000 | 7510 | 86 | 20.9 | 3100 |  |  |  |
| O=C(CN1C2CCC1CC2)Nc1cc2cc(-c3cnn4c3CN(CCF)CC4)ccc2cn1 [Compound 1000, 2-(7-Azabicyclo[2.2.1]heptan-7-yl)-N-(6-(5-(2-fluoroethyl)-4,5,6,7-tetrahydropyrazolo[1,5-a]pyrazin-3-yl)isoquinolin-3-yl)acetamide] | 2960 |  |  | 8720 | 7300 | 270 | 11.1 | 4320 | 1500 |  |  |
| CO[C@H]1CC[C@@H](C(=O)Nc2cc3cc(-c4nnc(C)s4)ccc3cn2)CC1 [Compound 1001, cis-4-Methoxy-N-(6-(5-methyl-1,3,4-thiadiazol-2-yl)isoquinolin-3-yl) cyclohexane-1-carboxamide] | 65 | 3300 |  | > 10000 | 677 | 9 | 7.3 | 593 |  |  |  |
| CC(C)CN1CCC[C@@H](C(=O)Nc2cc3cc(-c4cnn5c4CN(CCF)CC5)ccc3cn2)C1 [Compound 1002, (R)—N-(6-(5-(2-Fluoroethyl)-4,5,6,7-tetrahydropyrazolo[1,5-a]pyrazin-3-yl)isoquinolin-3-yl)-1-isobutylpiperidine-3-carboxamide] | > 10000 | 1900 | 5.9 | > 10000 | > 10000 | 425 | 28.5 | 1920 |  | 27.5 | 37.6 |
| Cn1cc(-c2ccc3cnc(NC(=O)C4CCN(Cc5ncccn5)CC4)cc3c2)cn1 [Compound 1003, N-(6-(1-Methyl-1H-pyrazol-4-yl)isoquinolin-3-yl)-1-(pyrimidin-2-ylmethyl)piperidine-4-carboxamide] | 49 | 732 |  | 1150 | 804 | 43 | 2.1 | 1320 |  |  |  |
| Cn1cc(-c2ccc3cnc(NC(=O)C4CCN(Cc5cnccn5)CC4)cc3c2)cn1 [Compound 1004, N-(6-(1-Methyl-1H-pyrazol-4-yl)isoquinolin-3-yl)-1-(pyrazin-2-ylmethyl)piperidine-4-carboxamide] | 5040 | 667 |  | 1180 | 678 | 37 | 2 | 618 |  |  |  |
| Cc1nc(CN2CCC(C(=O)Nc3cc4cc(-c5cnn(C)c5)ccc4cn3)CC2)no1 [Compound 1005, 1-((5-Methyl-1,2,4-oxadiazol-3-yl)methyl)-N-(6-(1-methyl-1H-pyrazol-4-yl)isoquinolin-3-yl)piperidine-4-carboxamide] | 72 | 898 |  | 2890 | 1130 | 32 | 1.5 | 1400 |  |  |  |
| CC(C)OCC(=O)Nc1cc2cc(-c3cncn3C)ccc2cn1 [Compound 1008, 2-Isopropoxy-N-(6-(1-methyl-1H-imidazol-5-yl)isoquinolin-3-yl)acetamide] | 318 | 643 |  | 7590 | > 10000 | 91 | 7.5 | 3350 |  |  | 37.2 |
| CC(C)OCCC(=O)Nc1cc2cc(-c3cncn3C)ccc2cn1 [Compound 1009, 3-Isopropoxy-N-(6-(1-methyl-1H-imidazol-5-yl)isoquinolin-3-yl) propanamide] | > 10000 | 68 |  | 1840 | 2350 | 15 | 6.2 | 1110 |  | 22.4 |  |
| Cn1cc(-c2ccc3cnc(NC(=O)C4CCN(CC(=O)OC(C)(C)C)CC4)cc3c2)cn1 [Compound 1010, tert-Butyl 2-(4-((6-(1-methyl-1H-pyrazol-4-yl)isoquinolin-3-yl)carbamoyl)piperidin-1-yl)acetate] | 103 | 622 |  | 1170 | 3960 | 53 | 2.6 | 2020 |  |  |  |
